Assay results reported in paper PMC8947478, “Novel, First-in-Human, Oral PCLX-001 Treatment in a Patient with Relapsed Diffuse Large B-Cell Lymphoma” (Current Oncology, 2022).
“Also recorded” adds a separate entry of the source. Where two headings read alike, the source gives them in different places.

Assays:
HGAL [1] = system: HGAL; parameters: method as in PMID 33093447; conditions: multiple Burkitt Lymphoma and Diffuse Large B cell lymphoma cell lines; cited from earlier work
[2] = Pharmacokinetic analysis of plasma after oral PCLX-001 (UHPLC-MS, two-compartment model); format: in vivo, human; conditions: patient
Description: The primary pharmacokinetic analysis endpoints were:
Tmax is the time at which the maximum plasma concentration of PCLX-001 is achieved.
Cmax is the maximum plasma concentration of PCLX-001.
The patient was dosed with oral doses of PCLX-001 20 mg. After dosing, the blood samples (3 mL volume) were serially collected into heparinized tubes from a right forearm butterfly cannula. All blood fluid specimens were frozen and later assayed using a validated UHPLC-MS detection method.
PK Solver 2.0 freeware (https://www.boomer.org/boomer/software/pksolver.zip; accessed 26 November 2021) was used to determine the single dose pharmacokinetic parameters using a two-compartment model. The terminal phase rate constant (λz) was estimated by applying exponential linear regression to the concentrations in the terminal phase, and the apparent terminal half-life (t 1/2) was estimated as 0.693/λz. The area under the concentration (AUC) vs. time curve from the time of injection to the last (Clast) measured concentration (AUC0-tlast) was calculated. […] Oral body clearance (CLoral) was calculated as the ratio of the dose to the AUC0–∞. The area under the first moment concentration vs. time curve (AUMC) was estimated as the sum of the area under the C × t vs. t curve from time zero to Clast, plus the ratios of Clast × t/λz and Clast/λz 2. The mean residence time (MRT) was calculated as the ratio of AUMC to AUC0–∞). The apparent volume of distribution of steady-state (Vdss) was calculated as the product of CL × MRT.

hERG = conditions: preclinical testing; cited from earlier work
HGAL [3] = assay: Flow cytometry of intracellular HGAL level in PBMC populations; format: in vivo, human
Description: (§1) Peripheral blood was collected from the patient at each sampling point (Screen, Day 1, and Day 28 of treatment) by venipuncture according to normal phlebotomy practice in 2 × 8 mL BD Vacutainer® CPT™ Tubes. Samples were immediately mixed by gentle inversion 10 times and process for PBMC isolation within 1 h. After centrifugation (1800× g for 20 min) at room temperature (18–25 °C) in a swinging bucket rotor (swing-out head), the mononuclear cells and platelets (referred to as PBMC) were carefully collected as the whitish layer just above the polyester gel and under the plasma layer, transferred into 9 mL freezing media (8 mL Fetal Bovine Serum and 1 mL DMSO), and stored at −70 °C or below until flow cytometry analysis.
(§2) PBMC were recovered by centrifugation (400× g for 5 min), washed in RPMI culture media, resuspended in PBS, and prepared for FACS analysis. PBMC were first labeled with Zombie Aqua™ Fixable Viability kit (1/100, 20 min at 4 °C; BioLegend, San Diego, CA, USA) for exclusion of dead cells, blocked with Human TruStain FcX Fc receptor blocking solution (5/100, 10 min at room temperature, BioLegend), then stained for extracellular markers using antibodies ECD-CD3 (clone UCHT1) and PE-Cy7-CD4 (clone SFCI12T4D11) from Beckman Coulter (Missaugua, ON, Canada) PerCp-Cy5.5-CD8 (SK-1) and BV-785CD19 (clone HIB19) from BioLegend, and PE-CF594-CD14 (clone MΦPG) from BD Bioscience (Mississauga, ON, Canada) for 20 min at 4 °C. The cells were then fixed and permeabilized using the eBioscience Intracellular Fixation and Permeabilization buffer set (Invitrogen, Mississauga, ON, Canada) and stained for intracellular markers AF-488-HGAL (clone 1H1-A7, eBioscience), AF-488-Lyn (Lyn-01, ab1890, Abcam, Cambridge, UK), and homemade monoclonal antibodies AF-700-NMT1(clone 6F8D5) and APC-NMT2 (clone 6C5E8), as previously described, in parallel with relevant isotype controls for at least 30 min at 4 °C. Prior to applying in the test, intracellular antibodies were first labeled with different fluorochromes using Lightning-Link conjugation kits (Abcam) and titrated to achieve the best concentration. Finally, samples were acquired on a Fortessa X-20 flow cytometer (BD Bioscences, Faculty of Medicine and Dentistry Flow Cytometry Facility, University of Alberta). Data were analyzed using FlowJo software (TreeStar, Ashland, OR, USA, version 10.8).

[4] = system: human cancers grown in immunodeficient mice; conditions: cited from earlier work
Lyn = assay: Flow cytometry of intracellular Lyn level in PBMC populations; format: in vivo, human
Description: as §1, §2

kinase = system: kinase; parameters: method as in PMID 33093447; conditions: KINOMEscan; cited from earlier work
[5] = cited from earlier work
[6] = 20 mg oral, Day 1 single dose, plasma
[7] = 20 mg daily, 28 days, all populations

Cc1c(NS(=O)(=O)c2c(Cl)cc(-c3ccnc(N4CCNCC4)c3)cc2Cl)c(CC(C)C)nn1C [PCLX-001, 2,6-dichloro-N-(3-isobutyl-1,5-dimethyl-1H-pyrazol-4-yl)-4-(2-(piperazin-1-yl)pyridin-4-yl)benzenesulfonamide]
HGAL protein level in vitro (HGAL [1]): significantly decreased
AUC(0-inf) ([2]; human, plasma, po, 20 mg, 20 mg oral daily, Day 15, plasma, read-out: Day 15 AUC0–∞): 2640 ng·h/mL
Cmax ([2]; human, plasma, po, 20 mg, 20 mg oral, Day 1 single dose, plasma, read-out: Cmax): 278 ng/mL
AUC(0-inf) ([2]; human, plasma, po, 20 mg, 20 mg oral, first dose (Day 1), plasma, read-out: AUC0–∞): 2360 ng·h/mL
half-life ([2]; human, plasma, po, 20 mg, 20 mg oral, single dose, read-out: T ½ (apparent terminal half-life) (converted)): 16 h
MRT ([2]; human, plasma, 20 mg oral, single dose): 18.6 h
Tmax ([2]; human, 20 mg oral, Day 1 single dose, plasma): 1.1 h
Day 22 pre-dose plasma concentration ([2]; 20 mg oral daily, Day 22 pre-dose (trough)): 51.4 ng/mL
drug accumulation in plasma after repeated daily dosing ([2]; 20 mg oral daily, first dose AUC vs day 15 AUC): without systemic accumulation of drug by day 15; also recorded: no evidence of drug accumulation
AUC0-tlast [2, 6]: 1701.33 ng·h/mL
Cmax [2, 6]: 278.23 ng/mL
AUMC ([2]; 20 mg oral, single dose): 43,883.76 ng/mL.h^2
CLoral ([2]; 20 mg oral, single dose): 8.4 L/h
T ½ (apparent terminal half-life) ([2]; 20 mg oral, single dose): 16.42 h
Vdss ([2]; 20 mg oral, single dose): 156.49 L
hERG interaction (hERG): no significant hERG interaction
change of HGAL protein level in circulating blood mononuclear cells (HGAL [3]; [7]): no clear change; also recorded: no apparent trend
HGAL intracellular level, % of population ± CV, Day 28 (HGAL [3]; CD4+ T cells, untreated: Screening 12.7, Day 1 22.1): 8.6 ± 0.58%
HGAL intracellular level, % of population ± CV, Day 28 (HGAL [3]; CD8+ T cells, untreated: Screening 25, Day 1 30.3): 17 ± 0.63%
HGAL intracellular level, % of population ± CV, Day 28 (HGAL [3]; CD14+ Monocytes, untreated: Screening 83.9, Day 1 87.5): 88.3 ± 0.64%
HGAL intracellular level, % of population ± CV, Day 28 (HGAL [3]; CD19+ B cells, untreated: Screening 2.44, Day 1 11.2): 8.33 ± 0.39%
change of HGAL expression in CD14+ monocytes (HGAL [3]; after 28 days of treatment): did not decrease
response in solid cancers [4]: tumour responses
response of human cancers grown in immunodeficient mice [4]: complete remissions
change of Lyn protein level in circulating blood mononuclear cells (Lyn; [7]): no clear change; also recorded: no apparent trend; also recorded: no significant decrease
Lyn intracellular level, % of population ± CV, Day 28 (Lyn; CD4+ T cells, untreated: Screening 13.7, Day 1 20): 28.7 ± 0.37%
Lyn intracellular level, % of population ± CV, Day 28 (Lyn; CD8+ T cells, untreated: Screening 17.6, Day 1 25.8): 33.3 ± 0.31%
Lyn intracellular level, % of population ± CV, Day 28 (Lyn; CD14+ Monocytes, untreated: Screening 51.4, Day 1 40.5): 66.6 ± 0.59%
Lyn intracellular level, % of population ± CV, Day 28 (Lyn; CD19+ B cells, untreated: Screening 8.33, Day 1 12.4): 12.1 ± 0.15%
off-target kinase inhibition (kinase): no significant off-target kinase inhibition
cardiac conduction ([5]; animal non-clinical safety testing): no cardiac conduction issues
dose-limiting toxicity in GLP non-clinical safety testing [5]: diarrhea was dose-limiting
